US20260151384A1, “ISOQUINOLINE DERIVATIVES AS PROTEIN DEGRADERS, E7 DEGRADERS, ANTIVIRALS, TUMOR THERAPEUTICS AND IMMUNE SUPPRESSIVES” (priority 2022, published 2026)
Values joined by “and” are separate entries in the source; they are usually repeats but may differ in a detail not shown here. Equal values may be shown once.

Key:
HPV16 E7 protein = HPV16 E7 protein (Human papillomavirus type 16, UniProt P03129); assay type: cell-based; details: for % Dad: adjusted degradation, CHX steady state set to 100%, Table 2 screen
SARS-CoV-2 = assay: microbe, parasite or virus in culture; assay type: cell-based; details: for % Inhibition of SARV-CoV-2 virus activity: 1.25 μM, n4
[1] = tested on: human cervical carcinoma (CaSki) xenograft; assay: Antitumor efficacy on CaSki human cervical carcinoma xenograft model; assay type: in vivo, nude mice; details: for % TGI (Day 44), percentage tumor growth inhibition with respect to controls: OC246/OC974 2 mg/kg os
Procedure: The aim of this study was to assess the in vivo efficacy of OC246 and OC974 on a human cervical carcinoma (CaSki) xenograft model in nude mice. OC246 and OC974 were administered oral once daily for four times with three days off, for three cycles at 2 mg/kg/dose. Cisplatin (CDDP) was used as a reference compound with three weekly intravenous (q7dx3) administrations of 6 mg/kg.

CaSki cells [2] = assay: Monolayer assay using Sulphorhodamine B (SRB) staining, CaSki; assay type: cell-based, human
CaSki cells [3] = assay: Cell cycle analysis using Propidium-Iodide staining (flow cytometry); assay type: cell-based, human; details: 48 hour incubation
Procedure: Propidium-Iodide (PI) DNA staining is performed to facilitate cell cycle analysis. For PI-DNA staining, fixed cells and eventually antibody-stained cells are resuspended in 450 μl of PBS (per 10^6 cells) and incubated with 100 μg/ml RNase (stock 1 mg/ml, in PBS) for 10 minutes at 37° C. Cells are then incubated with 5 μg/106 cells of PI (stock 1 mg/ml in PBS) for 10 minutes at room temperature. Samples are stored at 4° C. until CF analysis.
CaSki cells were incubated with various compounds and cell cycle distribution of the cells was assessed using Propidium-Iodide staining.
In order to analyze the cytostatic versus the cytotoxic effect of OC compounds, cell cycle profiles were analyzed in vitro after 48 hour incubations using Flow Cytometry as a read out. For this a cell cycle analysis from selected OC E7 degrader compounds was conducted in CaSki cells. Using 6 well plates, 1.5×10^5 cells were seeded for each well and grown over night at 37° C. 5% CO2. For analysis of the cell cycle behavior, cells were analyzed in the presence of propidium Iodide (PI^−) by flow cytometry (FC). Briefly, cells were detached by trypsin digestion, all supernatants were included in the analysis, and fixed with 70% ice cold ethanol and stored at 4° C. until FC analysis using P1^− staining (1 mg/ml). At least 7000 events were acquired for each sample.

HPV16 E7 protein, sequence (P03129 whole entry): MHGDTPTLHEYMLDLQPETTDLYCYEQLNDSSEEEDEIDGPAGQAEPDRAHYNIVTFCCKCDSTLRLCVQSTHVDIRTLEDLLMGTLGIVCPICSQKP

Cc1ccc(CN2C(=O)c3ccccc3C(C(=O)NCc3ccc(C(C)C)cc3)C2c2ccc(Cl)cc2)cc1 (stereo not drawn) [OC254]
% Dad (HPV16 E7 protein): 16%

CCNC(=O)N1CCN(C(=O)C2c3ccccc3C(=O)N(Cc3ccc(C)cc3)C2c2ccc(Cl)cc2)CC1 (stereo not drawn) [OC257]
% Dad (HPV16 E7 protein): 12%

C[C@@H]1C[C@@H]([C@H](O)CC2CC(=O)NC(=O)C2)C(=O)[C@@H](C)C1 [CHX, Cycloheximide, reference compound]
% Dab (HPV16 E7 protein; CaSki cells, 10 μM, four hours, CHX set to 100%): 100%
Measured MFI (mean fluorescence intensity) of E7 signal (HPV16 E7 protein; CaSki cells, 10 μM, four hours, vehicle T 8.06): 1.71

c1c2c(cc3c1OCO3)-c1cc3ccc4c(c3c[n+]1CC2)OCO4 [Coptisin]
% Inhibition of SARV-CoV-2 virus activity (SARS-CoV-2): 98.97%

CCC(=O)N1CCN(c2ccc(-n3c(=O)ccc4cnc5ccc(-c6cnc7ccccc7c6)cc5c43)cc2C(F)(F)F)CC1 [Torin1]
% Inhibition of SARV-CoV-2 virus activity (SARS-CoV-2): 7.00%

CS(=O)(=O)O.Cc1c(O)cccc1C(=O)N[C@@H](CSc1ccccc1)[C@H](O)CN1C[C@H]2CCCC[C@H]2C[C@H]1C(=O)NC(C)(C)C [Neifinavir-Mesylat]
% Inhibition of SARV-CoV-2 virus activity (SARS-CoV-2): 9.49%

[NH2][Pt]([NH2])([Cl])[Cl] [CDDP, Cisplatin, reference compound]
% TGI (Day 44), percentage tumor growth inhibition with respect to controls ([1]; CDDP 6 mg/kg i.v. q7dx3): 79.2%

COc1ccc2c(c1)C(=O)N(CC1CCN(C)CC1)[C@@H](c1ccc(C(F)(F)F)cc1)[C@@H]2C(=O)Nc1cccc(N2CCN(C)CC2)c1 (relative stereo) [VS977, rel-(3R,4R)-7-methoxy-N-(3-(4-methylpiperazin-1-yl)phenyl)-2-((1-methylpiperidin-4-yl)methyl)-1-oxo-3-(4-(trifluoromethyl)phenyl)-1,2,3,4-tetrahydroisoquinoline-4-carboxamide]
SRB anti-neoplastic effect compared among VS035, VS977, VS978, OC969 (CaSki cells [2]; CaSki, Test 21, FIG. 12): strongest effect

Cc1ccc(CN2C(=O)c3ccccc3C(C(=O)NCc3ccc(Cl)cc3)C2c2ccc(Cl)cc2)cc1 (stereo not drawn) [OC253]
% Dad (HPV16 E7 protein): 0%

Nc1ccc(-c2ccc3ncc4ccc(=O)n(-c5cccc(C(F)(F)F)c5)c4c3c2)cn1 [Torin2]
% Inhibition of SARV-CoV-2 virus activity (SARS-CoV-2): 1.46%

CN1CCC(CN2C(=O)c3ccccc3[C@@H](C(=O)Nc3cccc(N4CCN(C)CC4)c3)[C@@H]2c2ccc(C(F)(F)F)cc2)CC1 (relative stereo) [OC974, rel-(3R,4R)-N-(3-(4-methylpiperazin-1-yl)phenyl)-2-((1-methylpiperidin-4-yl)methyl)-1-oxo-3-(4-(trifluoromethyl)phenyl)-1,2,3,4-tetrahydroisoquinoline-4-carboxamide]
inhibition at 1.25 µM (SARS-CoV-2; Severe acute respiratory syndrome coronavirus 2, n4, read-out: % Inhibition of SARV-CoV-2 virus activity): 54.3%
EC50 (CaSki cells [2]; Homo sapiens, Ca-Ski, read-out: EC50 mean [nM]): 1550 nM
Tumor Volume Day 44 (mm^3 ± SD) ([1]; OC246/OC974 2 mg/kg os daily 4 x week 3 cycles, CDDP 6 mg/kg i.v. q7dx3, n = 7, control 1099 ± 503): 307 ± 171 mm^3
% TGI (Day 44), percentage tumor growth inhibition with respect to controls ([1]; CDDP 6 mg/kg i.v. q7dx3): 63.9%
Δ% Body Weight ([1]; between first day of treatment (day 20) and Day 44, control +4.9): +1.1%
Δ% on Day 44 ([1]; same schedules, control 100): 23%
G1/5 μM (CaSki cells [3]; 5 μM, % cells in G1, no treatment 53.3): 49.6%
G2/5 μM (CaSki cells [3]; 5 μM, % cells in G2, no treatment 15.6): 9.9%
A*/5 μM (Apoptosis as measured from total SUB G1 content) (CaSki cells [3]; 5 μM, no treatment 15.0): 19.5%
G1/10 μM (CaSki cells [3]; 10 μM, % cells in G1, no treatment 53.3): 8.7%
G2/10 μM (CaSki cells [3]; 10 μM, % cells in G2, no treatment 15.6): 0.8%
A*/10 μM (Apoptosis as measured from total SUB G1 content) (CaSki cells [3]; 10 μM, no treatment 15.0): 82.9% and 81.8%

COc1ccc2cc1Oc1ccc(cc1)C[C@H]1c3c(cc4c(c3Oc3cc5c(cc3OC)CCN(C)[C@@H]5C2)OCO4)CCN1C [Cepharantin]
% Inhibition of SARV-CoV-2 virus activity (SARS-CoV-2): 2.32%
